From patent US20230213511A1, “METHOD FOR EVALUATING ALLERGEN INACTIVATORS AND KIT FOR EVALUATING ALLERGEN INACTIVATORS” (SCHOOL CORPORATION, AZABU VETERINARY MEDICINE EDUCATIONAL …, priority 2020, published 2023)

What was measured:
[1] = target: T1, purified mite allergens "Der f1" (Dermatophagoides farinae, UniProt P16311); experiment: Immunostaining of purified mite allergens supported on a PVDF membrane after treatment using the test drug; assay type: biochemical; details: two hours at normal temperature, vs PBS (−); for capacity for recognition by the specific antibodies (anti-Der f1 monoclonal antibodies), immunostaining: 5 ppm Bi-jia water, 5 ppm sodium hypochlorite, 6M guanidine; for properties enabling recognition by the specific antibodies (anti-Der f1 monoclonal antibodies), immunostaining: test example 3, 30 v/v % hydrogen peroxide water, 10 mM hydrochloric acid (pH 2)
T1 construct: purchased ITEA Inc
T1 sequence (P16311 99-321): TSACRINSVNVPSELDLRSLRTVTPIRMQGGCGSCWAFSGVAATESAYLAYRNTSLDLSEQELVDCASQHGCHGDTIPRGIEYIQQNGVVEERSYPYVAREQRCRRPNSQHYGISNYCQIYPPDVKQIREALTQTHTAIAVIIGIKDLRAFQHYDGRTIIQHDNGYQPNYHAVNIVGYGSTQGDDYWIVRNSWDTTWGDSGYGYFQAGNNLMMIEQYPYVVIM
Protocol: (3-1. PVDF membrane) • A PVDF membrane (pore diameter: 0.45 μm) was immersed in methanol to be made hydrophilic, after which a prescribed quantity of allergens was blotted onto the PVDF membrane in a dot formation (0-100 ng/dot).
(4. Treatment using test drug) • The allergen-supporting membrane was washed three times using PBS (−). • The membrane was placed in a plastic container and immersed in 5 mL of a solution containing the test drug. • The membrane was allowed to stand for two hours at normal temperature. • The solution of the test drug was discarded, and the membrane was washed three times using PBS (−). • Protein staining or immunostaining was carried out.
(6. Immunostaining) • The allergen-supporting membrane (after “4. Treatment using test drug” described above) was immersed in 1 w/v % gelatin-containing PBS and was blocked for ten minutes at 37° C. • The blocking liquid was discarded, and the membrane was washed three times using PBS (−). • Primary antibodies were diluted using 1 w/v % BSA-containing PBST (0.02 v/v % Tween-20) so as to reach a concentration of 1 μg/mL, 2 mL of the primary antibodies was added to the blocked membrane, and a reaction was carried out for 30 minutes at normal temperature while the membrane was shaken. • A primary antibody reaction solution was discarded, and the membrane was washed three times using PBST. • HRP-labeled secondary antibodies (product name “HRP-Goat anti-Mouse IgG,” made by Zymed Laboratories) were diluted using 1 w/v % BSA-containing PBST (0.02 v/v % Tween-20) so as to reach a concentration of 3 μg/mL, 2 mL of the secondary antibodies was added to the membrane reacted with the primary antibodies, and a reaction was carried out for 30 minutes at normal temperature while the membrane was shaken. • A secondary antibody reaction solution was discarded, and the membrane was washed four times using PBST. • An amount of 1 mL of a coloring reagent solution (product name “Ez West Blue,” made by ATTO Co., Ltd.) was added to the membrane reacted with the secondary antibodies, and a reaction was carried out for ten minutes. • The membrane was washed using a large amount of distilled water, and the reaction was stopped. • The membrane was allowed to spontaneously dry.
(§1) Specifically, purified mite allergens were dot-blotted in an amount of 0, 12.5, 25, 50, or 100 ng onto a single PVDF membrane cut into a rectangular strip to produce an allergen-supporting membrane. Two identical allergen-supporting membranes were provided in this manner. First, the two allergen-supporting membranes were treated using the same test drug, a washing treatment using PBS was furthermore carried out, and then one of the treated membranes was supplied for protein staining using the gold stain and the other of the treated membranes was supplied for immunostaining using the anti-Der f1 monoclonal antibodies.
as §1, with “4, 20,” for “12.5, 25, 50,”, “antibodies. […]” for “antibodies.”

[2] = target: T2, purified Japanese cedar pollen allergens "Cry j1" (Cryptomeria japonica, UniProt P18632); experiment: Immunostaining of Cry j1 on multiscreen filter plate with PVDF filter membrane after treatment using the test drug; assay type: biochemical; details: test example 9, two hours at normal temperature, 0.1% SDS, 6M guanidine, other drugs of FIG. 16, vs PBS
T2 construct: purchased ITEA Inc
T2 sequence (P18632 22-374): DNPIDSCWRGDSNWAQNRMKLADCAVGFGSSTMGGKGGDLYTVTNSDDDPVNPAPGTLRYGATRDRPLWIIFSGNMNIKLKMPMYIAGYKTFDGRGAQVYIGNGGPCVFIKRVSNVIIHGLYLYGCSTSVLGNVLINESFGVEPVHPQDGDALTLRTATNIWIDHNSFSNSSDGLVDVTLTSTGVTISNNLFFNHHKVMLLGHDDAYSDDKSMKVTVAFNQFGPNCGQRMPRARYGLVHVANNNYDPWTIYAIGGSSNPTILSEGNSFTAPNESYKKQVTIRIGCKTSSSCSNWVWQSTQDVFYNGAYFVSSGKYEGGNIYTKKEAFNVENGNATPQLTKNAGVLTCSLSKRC
Text: […]

[3] = target: T2, purified Japanese cedar pollen allergens "Cry j1"; experiment: Immunostaining of Cry j1 on multiscreen filter plate with cellulose mixed ester filter membrane after treatment using the test drug; assay type: biochemical; details: test example 8, two hours at normal temperature, 5 ppm NaClO (Bi-jia water), 6M guanidine, other drugs of FIG. 15, vs PBS
Protocol: A test for evaluating allergen inactivators was conducted using, as an allergen support, a multiscreen filter plate (MultiScreen HTS HA sterile plate, Millipore, #MSHAS4510) provided with a filter membrane composed of a cellulose mixed ester (substance similar to nitrocellulose) in each well. Specifically, as per the main points of the operational procedure for the test shown in FIG. 6, a test was conducted in accordance with the following protocol.
(1. Formulation of Allergen-Supporting Membrane and Treatment Carried Out Using Test Drug) • An amount of 2 μL of purified Japanese cedar pollen allergens (product name “Cry j1”) (made by ITEA Inc.) (origin: Japanese cedar (Cryptomeria japonica)) in each stage of dilution (50, 10, 2, or 0 ng/μL) was added dropwise into each well of the multiscreen filter plate and was allowed to spontaneously dry. • Filtration washing was carried out three times using 200 μL of PBS. • An amount of 200 μL of the drugs being examined (the various drugs being examined, and concentrations thereof, shown in FIG. 15; PBS as a control) was added, and the multiscreen filter plate was allowed to stand for two hours at normal temperature. • The drugs being examined were removed through pipetting. • Filtration washing was carried out three times using 200 μL of PBS. • To immunostaining or gold staining […]

[4] = tested on: extract from the grass Phleum pratense, the weed Plantago lanceolata, or house dust containing Dermatophagoides pteronyssinus; details: extract treated using a 1% aqueous solution of tannic acid; cited from earlier work
[5] = test example 2, PVDF membrane, 0, 4, 20, 100 ng/dot, 0.1 w/v % SDS
[6] = PVDF membrane, 0, 4, 20, 100 ng/dot

Row | SMILES | capacity for recognition by the specific antibodies (anti-Der f1 monoclonal antibodies), immunostaining [1, 5] | capacity for recognition by the specific antibodies (anti-Cry j1 monoclonal antibodies), immunostaining [2] | properties enabling recognition by the specific antibodies (anti-Der f1 monoclonal antibodies), immunostaining [1, 6] | other results
1 | CCCCCCCCCCCCOS(=O)(=O)[O-].[Na+] [SDS] | notably weakened | notably weakened |  | 
2 | N=C(N)N [guanidine] |  | notably weakened |  | capacity for recognition by the specific antibodies (anti-Cry j1 monoclonal antibodies), immunostaining [3]: notably weakened
3 | Cl [hydrochloric acid] |  |  | weakened | 
4 | OO [hydrogen peroxide water, hydrogen peroxide] |  |  | weakened | 
5 | OCl [sodium hypochlorite] | notably weakened |  |  | capacity for recognition by the specific antibodies (anti-Der f1 monoclonal antibodies), immunostaining ([1]; test example 1, PVDF membrane, 0-100 ng/dot): notably weakened
6 | O=C(OC[C@H]1O[C@@H](OC(=O)c2cc(O)c(O)c(OC(=O)c3cc(O)c(O)c(O)c3)c2)[C@H](OC(=O)c2cc(O)c(O)c(OC(=O)c3cc(O)c(O)c(O)c3)c2)[C@@H](OC(=O)c2cc(O)c(O)c(OC(=O)c3cc(O)c(O)c(O)c3)c2)[C@@H]1OC(=O)c1cc(O)c(O)c(OC(=O)c2cc(O)c(O)c(O)c2)c1)c1cc(O)c(O)c(OC(=O)c2cc(O)c(O)c(O)c2)c1 [tannic acid] |  |  |  | allergenicity in a cutaneous reaction test [4]: allergenicity can be mitigated
